Results from PubChem BioAssay (NCI).
≈ marks a conversion by molar mass, not a printed value.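 Following 48 hours of exposure in 96-well plates, responses at five concentrations were used to interpolate endpoints linearly. GI50 marks 50% less growth. TGI denotes the concentration required for complete inhibition of growth.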 Where a SMILES comes first, the peptide text is derived from it. The star is where a group is joined. Boc = CC(C)(C)OC(=O)*; OBn = c1ccc(CO*)cc1

Legend:
Test in all cases: inhibition of tumour cell growth, NCI panel, 48 h
HCT-116 colon = test system: HCT-116 colon
K-562 leukemia = test system: K-562 leukemia
KM12 colon = test system: KM12 colon
NCI-H226 lung = test system: NCI-H226 lung
OVCAR-3 ovarian = test system: OVCAR-3 ovarian
RPMI-8226 leukemia = test system: RPMI-8226 leukemia
SF-539 CNS = test system: SF-539 CNS
UACC-257 melanoma = test system: UACC-257 melanoma
MDA-N = test system: MDA-N
786-0 renal = test system: 786-0 renal

Compound | GI50 (HCT-116 colon) | TGI (HCT-116 colon) | GI50 (K-562 leukemia) | TGI (K-562 leukemia) | GI50 (KM12 colon) | TGI (KM12 colon) | GI50 (NCI-H226 lung) [µM] | TGI (NCI-H226 lung) [µM] | GI50 (OVCAR-3 ovarian) | TGI (OVCAR-3 ovarian) | GI50 (RPMI-8226 leukemia) | TGI (RPMI-8226 leukemia) | GI50 (SF-539 CNS) | TGI (SF-539 CNS) | GI50 (UACC-257 melanoma) | TGI (UACC-257 melanoma) | TGI (MDA-N) | TGI (786-0 renal) [µM] | GI50 (MDA-N) [µg/mL]
COc1ccc(C(=O)N2c3ccccc3Sc3ccccc32)c(C(F)(F)F)c1 | 0.505 µM | > 100 µM | 0.349 µM | > 100 µM | 0.413 µM | 34.4 µM | 1.39 | 83.8 | 0.332 µM | 28.1 µM | 0.595 µM | > 100 µM | 0.271 µM | 0.995 µM | 13.7 µM | > 100 µM |  |  | 
O=C(N[C@H]1c2ccsc2/C(=N/O)[C@H]1O)C(F)(F)F |  | > 100 µM |  | > 100 µM |  |  |  | > 100 |  | > 100 µM |  |  |  | > 100 µM |  | > 100 µM | > 100 µM |  | 
O=C1C(Br)=C(c2ccccc2)S(=O)c2ccccc21 (stereo not drawn) |  | 20.4 µM |  | 11.8 µM |  | 30.7 µM |  | 40.7 |  | 26 µM |  |  |  | 12.9 µM |  | 25.8 µM | 20.4 µM | 7.62 | 
CC1(Cl)CC2C(CC1Sc1nnnn1-c1ccccc1)C2(C)C (stereo not drawn) |  | > 100 µM |  | > 100 µM |  | > 100 µM |  | > 100 |  | > 100 µM |  | > 100 µM |  | > 100 µM |  | > 100 µM |  |  | 
c1ccc2c(Cc3nnc4sc(SSc5nn6c(Cc7c[nH]c8ccccc78)nnc6s5)nn34)c[nH]c2c1 |  | 29.4 µM |  | 46.5 µM |  | 70.3 µM |  |  |  | 29.2 µM |  |  |  | 50.8 µM |  | > 100 µM |  | 47.6 | 
CC(C)(C)OC(=O)NC(Cc1ccccc1)C(=O)NC(Cc1ccccc1)C(=O)NCC(=O)OCc1ccccc1 (stereo not drawn) (Boc-Phe-Phe-Gly-OBn; configuration not given here) |  | 40.2 µM |  | 31.4 µM |  |  |  |  |  | 46.1 µM |  | 39.6 µM |  | 44.1 µM |  | > 100 µM | 53.3 µM | 31.6 | 
NCCCCNCCCNC(=O)c1nc(-c2csc(CCN)n2)sc1Cl |  | > 100 µM |  | > 100 µM |  | > 100 µM |  | > 100 |  | > 100 µM |  | > 100 µM |  | > 100 µM |  | > 100 µM |  |  | 
COc1cccc(-c2cc(=O)c3ccc(C)nc3[nH]2)c1 |  | > 38.1 µM |  | 0.0656 µM |  |  |  | 0.291 |  |  |  | 1.78 µM |  | 0.921 µM |  |  |  | > 100 | 
Cc1cc(C)n(CN(Cn2nc(C)cc2C)C2CCCCC2)n1 |  | 45.6 µM |  |  |  | 49.2 µM |  |  |  | 56.9 µM |  | 38.9 µM |  | 29.1 µM |  | 78.4 µM | 34.8 µM | 48.9 | 
CCc1ccc2c(c1)CC1(C2)Cc2cc3c(cc2C1)C(=O)CC3 (stereo not drawn) |  | 29.9 µM |  | 11.9 µM |  | > 100 µM |  | 67 |  | 42.8 µM |  | 50.7 µM |  | 61.4 µM |  | 51.6 µM |  | 60.2 | 
Cn1c2ccccc2c2c3c(c4c5ccccc5n(C)c4c21)C(=O)c1ccccc1C3=O |  | > 100 µM |  |  |  | > 100 µM |  | > 100 |  | > 100 µM |  | > 100 µM |  | 51.1 µM |  | > 100 µM | > 100 µM | 31.7 | 
COc1cc(/C=C2/N=C(c3ccccc3)N(C3=NNC4(C(=O)N3)c3ccccc3-c3ccccc34)NC2=O)ccc1O | 26.1 µg/mL | 47.3 µg/mL | 48.6 µg/mL | > 150 µg/mL | 22.7 µg/mL | 42.9 µg/mL |  |  | 24.8 µg/mL | 53.5 µg/mL | 50.2 µg/mL | > 150 µg/mL | 28.7 µg/mL | 59.3 µg/mL | 27.2 µg/mL | 51.8 µg/mL | 65 µg/mL |  | 31.1 (≈ 55.8 µM)
CCCCOCn1c(=O)[nH]c(=O)c2cc(Br)ccc21 |  | > 100 µM |  | > 100 µM |  | > 100 µM |  | 46.9 |  | > 100 µM |  |  |  | > 100 µM |  | > 100 µM | > 100 µM | > 100 | 
Cn1cnc2c(sc3nc4ccccc4n32)c1=N |  | > 100 µM |  |  |  |  |  | > 100 |  | > 100 µM |  | > 100 µM |  | > 100 µM |  | > 100 µM | > 100 µM | > 100 | 
O=C(NCCCNCCNC(=O)c1cc(-c2ccccc2)nc2ccccc12)c1cc(-c2ccccc2)nc2ccccc12 |  | 3.04 µM |  | 4.45 µM |  | 3.55 µM |  | 5.05 |  | 3.6 µM |  |  |  | 3.57 µM |  | 3.08 µM | 3.36 µM | 3.24 | 
CC(=O)Oc1ccc(C2COc3cc(OC(C)=O)c(OC(C)=O)cc3C2)cc1 (stereo not drawn) |  | 33.9 µM |  | 51.7 µM |  | 69.5 µM |  | 54.7 |  | 25.2 µM |  | 58.8 µM |  | 40.2 µM |  | 34.9 µM |  |  | 
C=CC[C@@]1(C(=O)OC)[C@H](Sc2ccccc2)C1(C)C |  | > 100 µM |  |  |  | > 100 µM |  | > 100 |  | > 100 µM |  | 26.4 µM |  | > 100 µM |  | 96.9 µM |  | > 100 | 

Compound | GI50 (HCT-116 colon) | TGI (HCT-116 colon) | GI50 (K-562 leukemia) | TGI (K-562 leukemia) | GI50 (KM12 colon) | TGI (KM12 colon) | GI50 (NCI-H226 lung) [µM] | TGI (NCI-H226 lung) [µM] | GI50 (OVCAR-3 ovarian) | TGI (OVCAR-3 ovarian) | GI50 (RPMI-8226 leukemia) | TGI (RPMI-8226 leukemia) | GI50 (SF-539 CNS) | TGI (SF-539 CNS) | GI50 (UACC-257 melanoma) | TGI (UACC-257 melanoma) | TGI (MDA-N) | TGI (786-0 renal) [µM] | GI50 (MDA-N) [µg/mL]
O=c1[nH]nc(Cc2ccccc2)n1-n1cnnc1 |  | > 100 µM |  | > 100 µM |  | > 100 µM |  |  |  | > 100 µM |  | > 100 µM |  | > 100 µM |  | > 100 µM | > 100 µM | > 100 | 
CC(=O)O[C@H]1C(=O)[C@@]2(C)[C@H]([C@H](OC(=O)c3ccccc3)[C@]3(O)C[C@H](OC(=O)[C@H](O)[C@@H](NC(=O)CC(C)(C)C)c4ccccc4)C(C)=C1C3(C)C)C1(OC(C)=O)CO[C@@H]1C[C@@H]2O (stereo partly drawn) |  | > 3.34 µM |  | > 10 µM |  |  |  | > 5.23 |  |  |  |  |  | 0.00453 µM |  | > 10 µM | > 10 µM | > 10 | 
C#CCn1c(=O)c(C#N)c(O)c2cc3ccccc3nc21 |  | > 100 µM |  | > 100 µM |  | > 100 µM |  | > 100 |  | > 100 µM |  | > 100 µM |  | > 100 µM |  | > 100 µM |  |  | 
CCc1c(C)c(C#N)c(=S)n(C2OC(CO)C(O)C(O)C2O)c1C (stereo not drawn) |  | > 100 µM |  | > 100 µM |  | > 100 µM |  | > 100 |  | > 100 µM |  |  |  | > 100 µM |  | > 100 µM | > 100 µM | > 100 | 
COc1cc(S(=O)(=O)Nc2ccc(C3=NNC(c4ccccc4)C3)cc2)ccc1F (stereo not drawn) | 17.3 µM | > 100 µM | 28.3 µM | > 100 µM | 18 µM | > 100 µM | 21.2 | 61.3 | 50.3 µM | > 100 µM | 21.6 µM | 73.1 µM | 40 µM | > 100 µM | 29.3 µM | > 100 µM |  |  | 
CC(=Nc1ccncc1)C(C)=Nc1ccncc1 |  | 83.9 µM |  | > 100 µM |  | > 100 µM |  | > 100 |  | 28.8 µM |  | 45 µM |  | 35.1 µM |  | > 100 µM |  | > 100 | 
Cc1ccc(N=Nc2c(C)c(C#N)c(=S)n(C3OC(CO)C(O)C(O)C3O)c2-c2ccccc2)cc1 (stereo not drawn) |  | 29 µM |  | 83.3 µM |  | 58.9 µM |  |  |  | 41 µM |  | > 100 µM |  | 48.9 µM |  | > 100 µM | 71.7 µM | 49.8 | 
Oc1ccc(CCc2cc(O)cc(O)c2)cc1 |  | > 100 µM |  | > 100 µM |  | > 100 µM |  | > 100 |  | > 100 µM |  | > 100 µM |  | > 100 µM |  | > 100 µM |  | > 100 | 
NNc1nncn1N |  | > 100 µM |  | > 100 µM |  | > 100 µM |  | > 100 |  | > 100 µM |  | > 100 µM |  | > 100 µM |  | > 100 µM |  | > 100 | 
C[N+](C)(C)c1ncnc2c1ncn2C1CCCCO1 (stereo not drawn) |  | > 100 µM |  | > 100 µM |  | > 100 µM |  |  |  | > 100 µM |  | > 100 µM |  |  |  | > 100 µM | > 100 µM | > 100 | 
Cc1c(-c2ccccc2)c(C#N)c2nnc(C(N)=O)c(N)n12 |  | > 100 µM |  | > 100 µM |  | > 100 µM |  |  |  | > 100 µM |  | > 100 µM |  | > 100 µM |  | > 100 µM | > 100 µM | > 100 | 
COc1cc2c(cc1OC)-c1c3c(cc4c1[C@@H](C2)N(C)CC4)OCO3 |  | 36.6 µM |  | 33.9 µM |  | 45.1 µM |  | 23 |  | 44.6 µM |  | 22.8 µM |  | 16.5 µM |  | 26 µM |  |  | 
S=C(S)NCC1CCC(CNC(=S)S)CC1 (stereo not drawn) |  | 42.5 µM |  | > 100 µM |  | 42.5 µM |  |  |  | 30.3 µM |  | > 100 µM |  | > 100 µM |  | 87.1 µM | 81.4 µM | 18.6 | 
NNC(=S)N1CCN(C(=S)NN)CC1 |  | > 100 µM |  |  |  | > 100 µM |  |  |  | > 100 µM |  | > 100 µM |  |  |  | > 100 µM | > 100 µM | > 100 | 
COc1cc(/C=C2\CCC(C)C3=C2NC(=S)NC3c2cc(OC)c(OC)c(OC)c2)cc(OC)c1OC (stereo not drawn) |  | > 100 µM |  | > 100 µM |  | > 100 µM |  |  |  |  |  | 68.4 µM |  |  |  | > 100 µM | > 100 µM | > 100 | 
O=c1[nH]c(Nc2cccc(Cl)c2)nc2nc[nH]c12 |  | > 100 µM |  | > 100 µM |  | > 100 µM |  | > 100 |  | > 100 µM |  | > 100 µM |  | > 100 µM |  | > 100 µM |  | > 100 | 
CC(C)N(C)C(=O)C12C3C4C1C1C2C3C41C#N (stereo not drawn) |  | > 100 µM |  | > 100 µM |  | > 100 µM |  |  |  | > 100 µM |  |  |  | > 100 µM |  | > 100 µM | > 100 µM | > 100 | 
